US20240016924A1, “NEW ADJUVANT TO IMPROVE THE INNATE IMMUNITY” (INSTITUT NATIONAL DE LA SANTÉ ET DE LA RECHERCHE MÉDICALE, priority 2020, published 2024)

How the values were obtained:
[1] = tested on: primary human nasal epithelial cells (HNECs); experiment: TSLP secretion in primary human nasal epithelial cells; format: cell-based; conditions: GalCer-dependent
Protocol: Primary human nasal epithelial cells (HNECs, purchased from PromoCell, Heidelberg, Germany) were isolated from nasal septum or adenoids of healthy donors. Cells from two independent donors were obtained. HNECs were cultured in airway epithelial cell basal medium (PromoCell) and supplemented with airway epithelial cell growth SupplementMix (PromoCell) and only cells from passage 2 to 6 were used.
(§1) TSLP, IL-25/IL-17E, IL-33, IFN-γ, IL-10, IL-12/23p40, IL-4, IL-5, IL-6, IL-13, TNF-α, MMP-9, IL-8/CXCL8, […], MDC/CCL22, TARC/CCL17, APRIL and BAFF were measured in culture supernatants from indicated experiments with custom multiplex Luminex assays (Bio-techne) according to the manufacturer's instructions. Additionally, when indicated TSLP was measured in culture supernatants by enzyme-linked immunosorbent assay (ELISA) with a limit of detection of 8 pg/ml (Thermo Fisher) according to the manufacturer's instructions.

autologous CD4+ T cells = experiment: DC-T co-cultures, CD4+ T cell proliferation (CFSE); format: cell-based, human
Protocol: Autologous CD4+ T cells were purified from PMBCs by negative selection according to manufacturer instructions (StemCell Technologies, France) (purity>95%)
DCs and confluent ECs were co-cultured overnight as described above, and DC-EC or eduDC was further incubated with P1 (clade B, 125 μM) or medium for 24 h. Then, DCs were separated and incubated with autologous CD4+ T cells pre-labeled with CFSE (Thermo Fisher) according to the manufacturer's instructions, at a ratio of 1:5 (DC/T). After 5 days of culture, CD4+ T cell proliferation was analyzed by flow cytometry as described (Yeh, Yeh et al. 2013, Qin, Yin et al. 2015) using Phytohaemagglutinin (PHA) (5 μg/mL) as positive control.

[2] = tested on: CD8-depleted PBMCs cocultured with RPMI 2650 cells; experiment: In vitro immunization assay with ovalbumin; format: cell-based, human
Protocol: In vitro immunization assay was performed as reported (Jung, Matsumoto et al. 2007) with modifications. Briefly, 1×10^6 CD8-depleted PBMCs (Human CD8 Depletion Cocktail, StemCell Technologies, France) were cocultured for 24 hrs with RPMI 2650 cells ([…]) pre-seeded in 48 well plates for 48 hrs. Then, ovalbumin (OVA, EndoFit Ovalbumin, 10 µg/mL, Invivogen) alone, OVA together with P1 (5 μM, 25 μM, 125 μM), OVA together with P1 mutant (P1mut, 125 μM), or medium were added to in RPMI 1640 medium supplemented with Non-Essential Amino Acids (NEAA solution, Thermo Fisher), IL-4 ([…]), IL-2 (10 UI/mL) and 2-mercaptoethanol (20 μM) for 7 days.
For the detection of OVA-specific B cells, at indicated time of culture, PMBCs were surface stained with ovalbumin conjugated to fluorescein (OVA-FITC, 20 ug/mL, Thermo), PE-conjugated mouse anti-human CD20 (BD Biosciences, CA, USA), APC-conjugated goat anti-human IgA or donkey anti-human IgG (Jackson ImmunoResearch, PA, USA) as indicated by the manufacturer. Specific labeling was quantified by flow cytometry with a Guava EasyCyte flow cytometer (Merck-Millipore), and analyzed with the dedicated InCyte software, using the following strategy: CD20+ B cells were first gated and cell double positive for OVA-FITC+ and APC-conjugated anti-IgA or anti-IgG were determined as OVA-IgA or IgG-specific B-cell s.
In vitro immunization assays have been used to produce specific monoclonal antibodies using a defined antigen complemented with an adjuvant (Borrebaeck, Danielsson et al. 1987). Here, we establish a mucosal immunization model adapted from (Jung, Matsumoto et al. 2007, Yeh, Yeh et al. 2013, Wijkhuisen, Savatier et al. 2016) and using mucosal DCs based on our results presented above. OVA was selected as the model antigen. Therefore, human CD8-depleted PBMCs (n=5 independent donors) were cocultured with RPMI 2650 cells for one day to educate DCs, and prior to addition of either medium, OVA, OVA plus P1 mutant (P1mut, 125 μM) or OVA plus P1 (5 μM, 25 μM, 125 μM) for seven more days. OVA-specific B cells were quantified by flow cytometry using FITC-conjugated OVA and anti-CD2O-PE to gate on OVA-specific B cells. The Ig isotype of surface B cell receptor (BCR) was next characterized by APC-conjugated anti-human-IgA or anti-human-IgG. […] Similar results were obtained when B cells were stained with anti-CD19-PE.

nasal RPMI cells [3] = experiment: Calcium measurement (Fura-2/AM), nasal RPMI cells; format: cell-based, human; conditions: P1 125 μM vs 2511M, controls at 125 μM, n=3
Protocol: (§2) 70-80% confluent RPMI 2650 or HNEC cells in 24-well plate were loaded with […] Fura-2/AM (Molecular Probes) in basal medium without serum/growth factors for 1 hour at 37° C. Cells were washed twice with mammalian saline (Conche, Boulla et al. 2009) and measurements were performed in complete medium supplied with HEPS (10 mM) and CaCl2 (2 mM) as described add (Conche, Boulla et al. 2009). Images were acquired with an inverted fluorescence microscope (Observer Z1, Zeiss, Germany) and analyzed with MetaMorph software (Guichard, Bonilla et al. 2017) Calcium was measured every 5 seconds by video fluorescence imaging. Results were expressed as 340 nm to 380 nm fluorescence ratio and normalized to the baseline, i.e. ratio at time zero was set as 1.

nasal RPMI cells [4] = experiment: Cytokines and chemokines quantification (Luminex), nasal RPMI cells; format: cell-based, human; conditions: 125 μM, 24 hrs
Protocol: as §1
We next investigated whether, in addition to TSLP, P1 could stimulate epithelial secretion of additional immune factors prone to attract antigen presenting cells (APCs). […] Together with TSLP (Zhou, Xu et al. 2018), this set of immune factors could facilitate recruitment of APCs to the mucosal surface for initiation of an immune response, since CCL20 and CCL2 chemo-attract macrophages and immature dendritic cells (DCs), and MMP-9 degrades the extracellular matrix and facilitates the migration of immune cells in or out the epithelium. Treg cells have IgA-inducing functions and require RA, TGF-b1, IL-10, and TSLP from intestinal epithelial cells and DCs. So, we assumed IL-10 released from either EC or DC may contribute to IgA class switching (Gutzeit, Magri, et al. 2014).

primary HNEC cells = experiment: Calcium measurement (Fura-2/AM), primary HNEC cells; format: cell-based, human; conditions: P1 125 μM vs 2511M, controls at 125 μM, n=3
Protocol: as §2

## SQNQQEKNEQELLELDKWASLWNWFNITNWLWYIK [P1]
[1]
  TSLP secretion: induces primary human nasal epithelial cells (HNECs) to secrete TSLP
Autologous CD4+ T cells; P1 stimulation on CD4+ T cells alone
  proliferation of CD4+ T cells: has no effect
Autologous CD4+ T cells; peptide-primed eduDCs, 125 μM, 5 days, DC/T 1:5
  proliferation of autologous CD4+ T cells: induced the proliferation of autologous CD4+ T cells
[2]; OVA plus P1 at 5 μM and 25 μM, 7 days
  induction of OVA-specific B cells: very limited
[2]; OVA plus P1 at 125 μM, 7 days, n=5 donors
  OVA-specific B cells (surface OVA-specific IgA and IgG): significantly enhances OVA recognition by B cells
[2]; absence of nasal epithelial cells during the in vitro immunization
  induction of OVA-specific B cells: not able to induce OVA-specific B cells
[2]; day 7, ELISA
  OVA-specific antibody secretion in culture supernatants: could not be detected by ELISA
Nasal RPMI cells [3]
  extracellular calcium influx (340/380 nm ratio): induces an immediate extracellular calcium influx in a concentration-dependent manner
Nasal RPMI cells [4]
  secretion of MMP-9, CCL20, CCL2 and IL-10: selectively induced the secretion of MMP-9, CCL20, CCL2 and IL-10
Primary HNEC cells
  extracellular calcium influx (340/380 nm ratio): induces an immediate extracellular calcium influx in a concentration-dependent manner
